Here are results for two molecules from BindingDB's records for patent US12435061 (Kamari Pharma, 2025).

This experiment addresses T1, Transient receptor potential cation channel subfamily V member 3 (Homo sapiens, UniProt Q8NET8).
T1 sequence (Q8NET8 whole entry): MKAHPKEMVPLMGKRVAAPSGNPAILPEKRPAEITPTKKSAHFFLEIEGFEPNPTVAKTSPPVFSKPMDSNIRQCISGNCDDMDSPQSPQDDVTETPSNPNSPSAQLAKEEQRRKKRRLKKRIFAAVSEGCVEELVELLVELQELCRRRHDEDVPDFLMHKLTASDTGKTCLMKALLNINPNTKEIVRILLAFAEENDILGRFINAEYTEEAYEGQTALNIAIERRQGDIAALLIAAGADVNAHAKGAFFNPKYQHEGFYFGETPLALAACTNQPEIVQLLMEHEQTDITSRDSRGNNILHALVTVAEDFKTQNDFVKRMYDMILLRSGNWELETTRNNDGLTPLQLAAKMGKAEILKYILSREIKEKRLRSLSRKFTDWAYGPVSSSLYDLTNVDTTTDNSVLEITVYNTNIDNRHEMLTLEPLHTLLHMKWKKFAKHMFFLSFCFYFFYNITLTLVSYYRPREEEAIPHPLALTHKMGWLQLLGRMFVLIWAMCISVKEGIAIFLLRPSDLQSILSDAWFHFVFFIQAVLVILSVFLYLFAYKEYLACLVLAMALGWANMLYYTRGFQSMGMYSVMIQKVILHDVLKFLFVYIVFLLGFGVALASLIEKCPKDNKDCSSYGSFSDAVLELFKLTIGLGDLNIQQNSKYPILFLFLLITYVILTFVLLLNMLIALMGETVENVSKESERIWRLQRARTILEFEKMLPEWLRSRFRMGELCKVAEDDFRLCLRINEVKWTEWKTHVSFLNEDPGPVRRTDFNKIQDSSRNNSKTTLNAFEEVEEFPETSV
The experiment can be described thus: Patch Clamp Experiments. The method, then: TRPV3 cells were induced 20-48 hours, removed from growth plates, and replated at low density (to attain good single-cell physical separation) on glass coverslips for measurement. In some cases, cells were grown in low density overnight on glass coverslips. Patch clamp recordings were made in the whole-cell mode with a holding potential of −40 mV. Every 5 seconds, a voltage ramp was applied from −120 to +100 mV, 400 ms in duration. Currents elicited were quantified at −80 mV and +80 mV. […] External solution was Ringer's solution described above.
A general note: The patch-clamp technique gives a direct electrical read-out from membranes.

The molecule `CCc1ccccc1Oc1ccc(N2CC[C@H](Oc3ccc(C(F)(F)F)cn3)C2)c(CO)n1` [US12435061, Compound 1-212] had an IC50 of over 3.2 µM. Under `O=[N+](O)c1cc(-c2ccccc2)ccc1N1CC[C@H](Oc2ccc3cc(Cl)ccc3n2)C1` [US12435061, Compound 1-70] stands over 3.2 µM.

The term IC50 denotes the point on the concentration scale where inhibition reaches its midpoint.
